What was measured:
[1] = target: T1, WaaP from E. coli (WaaPEc) (Escherichia coli, UniProt Q9R9D6); conditions: cited from earlier work
T1 construct: His-tag (N)

F470 (wild type) = assay: MIC of novobiocin and SDS, in vivo complementation assay; format: cell-based, E. coli
Source text: Site-directed mutagenesis and in vivo complementation assay—waaP was amplified by polymerase chain reaction (PCR) from pCOREc1 (de Kievit and Lam, 1997) with the flanking up- and down-stream primers ^5′[…]^3′ (SEQ ID NO: 3) and ^5′[…]^3′ (SEQ ID NO: 4) containing Baam HI and Hind III respectively. The PCR product was cloned into the complementation vector pUCP26 (West, 1994) as a positive control for complementation assay. Mutations of waaP were introduced by the method of “overlapping extension” as described by Horton (Horton, 1993) using PCR with the flanking primers as well as the primers shown below. K69A mutation was introduced with the primer (only up-strand was described here) ^5′[…]^3′ (SEQ ID NO: 5); K69R with ^5′[…]^3′ (SEQ ID NO: 6); D163A with ^5′[…]^3′ (SEQ ID NO: 7); and D163E with ^5′[…]^3′ (SEQ ID NO: 8). Underlined nucleotides indicated the mutations. The PCR products were then cloned into pUCP26 at Bam HI and Hind III sites respectively, and transformed into E. coli F470 7waaP- (Yethon 1998). Constructs of the mutations of waaP were sequenced to confirm the mutation. […]
To validate the accuracy of the alignment comparisons in FIG. 2, site-directed mutagenesis of waaPPa was performed targeting on K^69 and […], respectively. The effect of the site-directed mutation was evaluated by their ability to complement waaP-Ec. […]

[2] = system: E. coli F470 (waaP−)/waaPPa(D163A); assay: as above; format: cell-based
Source text: (§1) Site-directed mutagenesis and in vivo complementation assay—waaP was amplified by polymerase chain reaction (PCR) from pCOREc1 (de Kievit and Lam, 1997) with the flanking up- and down-stream primers ^5′[…]^3′ (SEQ ID NO: 3) and ^5′[…]^3′ (SEQ ID NO: 4) containing Baam HI and Hind III respectively. The PCR product was cloned into the complementation vector pUCP26 (West, 1994) as a positive control for complementation assay. Mutations of waaP were introduced by the method of “overlapping extension” as described by Horton (Horton, 1993) using PCR with the flanking primers as well as the primers shown below. K69A mutation was introduced with the primer (only up-strand was described here) ^5′[…]^3′ (SEQ ID NO: 5); K69R with ^5′[…]^3′ (SEQ ID NO: 6); D163A with ^5′[…]^3′ (SEQ ID NO: 7); and D163E with ^5′[…]^3′ (SEQ ID NO: 8). Underlined nucleotides indicated the mutations. The PCR products were then cloned into pUCP26 at Bam HI and Hind III sites respectively, and transformed into E. coli F470 7waaP- (Yethon 1998). Constructs of the mutations of waaP were sequenced to confirm the mutation. In vivo complementation was tested for the minimum inhibition concentration (MIC) of SDS and novobiocin, respectively according to Walsh, et al. 2000. E. coli F470 7waaP- was used as the negative control.
(§2) To validate the accuracy of the alignment comparisons in FIG. 2, site-directed mutagenesis of waaPPa was performed targeting on K^69 and […], respectively. The effect of the site-directed mutation was evaluated by their ability to complement waaP-Ec. It is noteworthy that the complementation assay was performed using waaP-Ec since waaP mutation is lethal to P. aeruginosa. In Table I, the complementation of waaP-Ec by wild type waaPPa increased the MICs of waaP-Ec by 3 and 30 times to novobiocin and SDS, respectively. However, the MICs of all the mutants were at the same level as that of waaP-Ec.

[3] = system: E. coli F470 (waaP−)/waaPPa(D163E); assay: as above; format: cell-based
Source text: as §1, §2

[4] = system: E. coli F470 (waaP−)/waaPPa(K69A); assay: as above; format: cell-based
Source text: as §1, §2

[5] = system: E. coli F470 (waaP−)/waaPPa(K69R); assay: as above; format: cell-based
Source text: as §1, §2

[6] = system: E. coli F470 (waaP−)/waaPPa; assay: as above; format: cell-based; conditions: for increase of the MIC of waaP-Ec by complementation with wild type waaPPa: versus E. coli F470 waaP− mutant
Source text: as §1, §2

E. coli F470 (waaP−) = assay: as above; format: cell-based
Source text: as §1, §2

WaaPHisC = target: T2, WaaPHisC (Pseudomonas aeruginosa, UniProt Q9HUF7); format: biochemical, P. aeruginosa
T2 construct: made in house; host or cells: E. coli BL21(DE3)pLysS, vector pET30a(+)
Description: Antigen coating was accomplished by adding 50 μl LPS or enzyme reaction mixture to each well and then mixing with equal amount of chloroform-ethanol ([…]/EtOH) (1:10, v/v)). The plate was incubated at room temperature in the fume hood (flow rate at 150 ft·min^−1) overnight to allow the evaporation of the solvent. The ELISA was performed according to Bantroch et al. (1994) (Bantroch, 1994) with the following modifications. […] For the colorimetric method (Bantroch, 1994), the ELISA was developed at 37° C. for 2 h and the optical density at 405 nm was determined on a microplate reader (Flow Laboratories, Mississauga, ON). For the chemiluminescence development, 100 μl of the chemiluminescence substrate CDP-Star® Ready-to-Use with Emerald-II™ (CDP*) (Applied Biosystems, Bedford, Mass.) with 1:5 (v/v) diluted in diethanolamine buffer (9.6% (v/v) and 0.01% (w/v) MgCl2, pH 9.8) was added to each well. After incubation at room temperature for 20 min, the response of chemiluminescence was measured on a 1420-VICTOR^2 Multilabel Counter (Wallac, Montreal, QC) using chemiluminescence program.
The reaction mixture was incubated at 37° C. for 30 min (15 min for kinetics experiments) and quenched by the addition of 50 μl chloroform/ethanol (1:10) solution. The plate was then left at room temperature in the fume hood overnight and subjected to ELISA the next morning. PAO1-LPS was used as the standard to quantify phosphorylated LPS.
Therefore, the reactions on the kinetics studies measured the phosphorylation within the initial 15 min.

T1 sequence (Q9R9D6 whole entry): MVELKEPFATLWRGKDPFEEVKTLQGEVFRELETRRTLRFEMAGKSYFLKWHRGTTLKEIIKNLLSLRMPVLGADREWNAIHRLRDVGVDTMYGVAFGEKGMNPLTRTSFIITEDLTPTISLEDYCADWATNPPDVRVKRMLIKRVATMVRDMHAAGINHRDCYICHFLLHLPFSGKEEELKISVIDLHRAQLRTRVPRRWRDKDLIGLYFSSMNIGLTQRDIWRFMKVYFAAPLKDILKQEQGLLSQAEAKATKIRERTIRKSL

Nc1ncnc2c1ncn2[C@@H]1O[C@H](COP(=O)(O)OP(=O)(O)OP(=O)(O)O)[C@@H](O)[C@H]1O [ATP, adenosine triphosphate]
Km [1]: 130 µM

CO[C@@H]1[C@@H](OC(N)=O)[C@@H](O)[C@H](Oc2ccc3c(O)c(NC(=O)c4ccc(O)c(CC=C(C)C)c4)c(=O)oc3c2C)OC1(C)C [Novobiocin, novobiocin]
MIC (F470 (wild type); Escherichia coli): > 200 µg/mL
MIC ([2]; Escherichia coli): 25 µg/mL
MIC ([3]; Escherichia coli): 50 µg/mL
MIC ([4]; Escherichia coli): 50 µg/mL
MIC ([5]; Escherichia coli): 50 µg/mL
MIC ([6]; Escherichia coli): 150 µg/mL
increase of the MIC of waaP-Ec by complementation with wild type waaPPa [6]: 3 times
MIC (E. coli F470 (waaP−); Escherichia coli): 50 µg/mL

CCCCCCCCCCCCOS(=O)(=O)[O-].[Na+] [SDS]
MIC (F470 (wild type); strain F470 (wild type)): >50,000 μg.ml^−1
MIC ([2]; strain E. coli F470 (waaP−)/waaPPa(D163A)): 400 µg/mL
MIC ([3]; strain E. coli F470 (waaP−)/waaPPa(D163E)): 200 µg/mL
MIC ([4]; strain E. coli F470 (waaP−)/waaPPa(K69A)): 400 µg/mL
MIC ([5]; strain E. coli F470 (waaP−)/waaPPa(K69R)): 400 µg/mL
MIC ([6]; strain E. coli F470 (waaP−) complemented with wild type waaPPa): 12,500 μg.ml^−1
increase of the MIC of waaP-Ec by complementation with wild type waaPPa [6]: 30 times
MIC (E. coli F470 (waaP−); strain E. coli F470 (waaP−)): 400 µg/mL

B1: WaaPHisC: recombinant P. aeruginosa WaaP with C-terminal 6×His tag, heptose/tyrosine kinase (protein, UniProt Q9HUF7 1-268, looked up)
Lipopolysaccharide core …: MRLVLEEPFKRLWNGRDPFEAVEALQGKVYRELEGRRTLRTEVDGRGYFVKIHRGIGWGEIAKNLLTAKLPVLGARQEWQAIRRLHEAGVATMTAVAYGERGSDPARQHSFIVTEELAPTVDLEVFSQDWRERPPPPRLKRALVEAVARMVGDMHRAGVNHRDCYICHFLLHTDKPVSADDFRLSVIDLHRAQTRDATPKRWRNKDLAALYFSALDIGLTRRDKLRFLRTYFRRPLREILRDEAGLLAWMERKAEKLYERKQRYGDLL
modifications: C-terminal 6xHis tag
notes: recombinant P. aeruginosa WaaP with C-terminal 6×His tag, heptose/tyrosine kinase
Vmax (WaaPHisC; phosphorylation of HF-LPS): 408.24 pmol/min
kcat (WaaPHisC; phosphorylation of HF-LPS): 0.4538 s⁻¹
enzyme activity remained after storage (WaaPHisC; storage at −20° C. for 7 days): about 70%

From patent US20030017518A1, “Non-radio-active assay of LPS kinases” (priority 2001, published 2003)
